Test results from paper PMC3745399, “An NO Donor Approach to Neuroprotective and Procognitive Estrogen Therapy Overcomes Loss of NO Synthase Function and Potentially Thrombotic Risk” (PLoS ONE, 2013).

What was measured:
ERα = biological target: T1, ERα (Homo sapiens, UniProt P03372); test: ER binding affinity by competitive E2 displacement (ERα)
T1 sequence (P03372 1-595): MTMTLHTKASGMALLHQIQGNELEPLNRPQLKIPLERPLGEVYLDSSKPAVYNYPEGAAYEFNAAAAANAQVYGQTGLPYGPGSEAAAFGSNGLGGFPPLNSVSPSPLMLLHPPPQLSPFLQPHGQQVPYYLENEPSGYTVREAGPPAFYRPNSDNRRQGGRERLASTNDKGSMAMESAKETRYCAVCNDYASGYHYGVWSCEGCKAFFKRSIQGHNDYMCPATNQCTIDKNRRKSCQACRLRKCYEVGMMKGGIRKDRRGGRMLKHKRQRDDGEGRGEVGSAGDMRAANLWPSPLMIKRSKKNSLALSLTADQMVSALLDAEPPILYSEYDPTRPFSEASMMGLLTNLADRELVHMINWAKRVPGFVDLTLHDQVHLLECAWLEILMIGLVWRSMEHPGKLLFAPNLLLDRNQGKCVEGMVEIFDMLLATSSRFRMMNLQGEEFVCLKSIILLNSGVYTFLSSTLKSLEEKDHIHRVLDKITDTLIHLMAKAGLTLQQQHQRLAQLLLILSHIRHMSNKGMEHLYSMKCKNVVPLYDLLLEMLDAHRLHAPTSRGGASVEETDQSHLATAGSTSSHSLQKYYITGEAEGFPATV
Protocol: ER binding affinity was measured by competitive E2 displacement as previously described.

[1] = system: Ishikawa endometrial cancer cell line; test: ER-mediated transcriptional activity (antiestrogen) in Ishikawa cells; format: cell-based; details: read-out: antiestrogen potency IC50, ER-mediated transcriptional activity
[2] = system: primary cortical neurons exposed to OGD; test: Neuroprotection in oxygen glucose deprivation (OGD), MTT; format: cell-based, rat; details: for neuroprotection with G15: 100 nM SERM + G15 100 nM (GPR30 antagonist); for neuroprotection with L-NAME: 100 nM SERM + L-NAME 100 µM (NOS antagonist), whether it attenuated neuroprotective activity; for neuroprotection with LY294002: 100 nM SERM + LY294002 10 µM (PI3K inhibitor); for neuroprotection with pertussis toxin: 100 nM SERM + pertussis toxin 100 ng/mL; for neuroprotection (cell survival by MTT): 100 nM, 2 h OGD, 24 h, no blocker, normalized to E2 10 nM (100%) and vehicle (0%)
Protocol: Primary neuronal cultures were subjected to 2 h OGD with compounds added at the start of OGD and inhibitors added 45 min prior to OGD. Cell survival was measured at 24 h.
Primary cultures of dissociated cortical neurons were prepared as follows; briefly, cortices were dissected from E16-18 Sprague-Dawley rats (Charles River). After removal of meninges, cortices were manually dissociated and plated at a density of 10^6 cells/mL into 96-well plates. Twenty-four hours after plating, cultures were grown in Neurobasal A media supplemented with B27, glutamine and pen/strep, with media changes every 3–4 days. In accordance with published protocols, measured levels of glia in culture after DIV2 are <0.5%. Experiments were performed at DIV 11–12.
The cell media was changed to phenol red-free growing media at least 3 h before OGD. Receptor blockers were added 45 min prior to the start of OGD, and SERMs were added at the start of OGD, with concentrations maintained through media changes. For OGD, the cells were transferred to a hypoxia chamber controlled at 5% CO2 and <1% O2, and growth media was replaced with a physiological salt solution (in mM: NaCl 116, CaCl2 1.8, MgSO4 0.8, KCl 5.4, NaHCO3 14.7, NaHPO4 1, HEPES 10, pH = 7.4). After 2 h OGD, cells were removed from the chamber and growth media was replaced. After 24 h, cell viability was measured by MTT assay using a Dynex MRX ll micro-plate spectrophotometer.

[3] = system: hippocampal slices from 16-month old male 3×Tg mice; test: LTP in CA1 of hippocampal slices after theta burst stimulation; set-up: species or system mouse; details: 3×Tg slices; for enhancement of subsequent theta bursts during LTP induction: 100 nM; for end fEPSP: 100 nM added 30 min prior to TBS, untreated 3×Tg 97.0±6.4%, WT 134.7±10.3%
Protocol: LTP in the CA1 field of the hippocampus is a well-studied cellular model for learning and memory. […] At 16 months, an advanced age at which Alzheimer's-like neuropathology is well developed in these animals, studies on LTP have not previously been reported. Nevertheless, we observed a robust, reproducible deficit in LTP in these aged transgenic mice, with field excitatory post-synaptic potentials (fEPSP) showing an end fEPSP of 97.0±6.4% of baseline at 45 min post-TBS, compared to 134.7±10.3% observed in the wild type (WT) transgenic background controls (Fig. 3A,B).
Figure 3 Reversal of LTP deficit in aged 3×Tg mice by SERMs is GPR30 dependent. LTP was measured after TBS in the CA1 region of hippocampal sections from 16 month male 3×Tg mice or WT controls. Test compounds (SERMs 100 nM; G15 100 nM) were added 30 min prior to TBS. […] (C) Secondary analysis of theta bursts indicate action both during induction and stabilization of LTP, through a GPR30 dependent mechanism.
All experiments used 16-month old male 3×Tg transgenic or age-matched WT background controls. For electrophysiology, mice were rapidly decapitated, and brains were removed into an ice-cold aCSF solution (in mM: NaCl 124, KCl 3.0, KH2PO4 1.25, NaHCO3 25.7, D-glucose 10, L-ascorbate 2.0, MgSO4 2.5, and CaCl2 3.3) and sectioned on a tissue chopper into 400 µm sections. Slices were transported to a 37°C solution of aCSF, continuously bubbled with 95% O2/5% CO2, and allowed to recover at least 60 min before experimentation. After placement of a stimulation electrode in the Schaffer commissural fibers and recording electrodes with 2 M NaCl solution into the stratum radiatum of the CA1 area, stimulus intensity was set to evoke submaximal fEPSP and continuously monitored at 20 s intervals for at least 15 min to establish a stable baseline. SERMs (100 nM) and G15 (100 nM) were prepared fresh in perfusate and started at least 30 min before LTP induction to reach a new baseline after enhancement of basal synaptic transmission was observed. […] Resulting fEPSP was monitored at 20 s intervals for ∼60 min post TBS.

[4] = format: in vivo; details: mouse, ip, 5 mg/kg
Protocol: All experiments were performed on 6–8 month male C57B1/6 mice (Charles River Laboratory) or eNOS(−/−) animals. Animals were injected (i.p.) at various time points before sacrifice at the doses specified. After euthanasia via CO2, plasma was collected, and cortices and hippocampi were collected after PBS perfusion and stored at −80°C. Tissue samples were weighed and extracted with methanol. Plasma samples were extracted with cold acetonitrile. Quantitative analysis of drug concentrations in plasma and brain used internal standards spiked into plasma and brain homogenates before liquid extraction with acetonitrile or methanol, and separation and measurement was performed with LC-MS/MS tandem mass spectrometry. The supernatant (deproteinized) was analyzed by chemiluminescence with SIEVERS 280i nitric oxide analyzer.
Figure S3: SERM bioavailability in plasma and CNS of WT and eNOS (-/-) mice. […] (n=4).

Compound | IC50 (ERα) [nM] | IC50 [1] [nM] | neuroprotection with G15 [2] | neuroprotection with ICI 182780 ([2]; 100 nM SERM + ICI 182780 100 nM, added 45 min prior to OGD) | neuroprotection with L-NAME [2] | neuroprotection with LY294002 [2] | neuroprotection with pertussis toxin [2] | neuroprotection (cell survival by MTT) [2] | enhancement of subsequent theta bursts during LTP induction [3] | end fEPSP [3] | end fEPSP with G15 ([3]; DMA 100 nM + G15 100 nM) [%] | effect on LTP with ODQ (sGC inhibitor) ([3]; ODQ 10 nM, variable interburst interval, preliminary) | bioavailability in plasma and CNS ([4]; in vivo) | blood brain barrier permeability [4]
O=[N+]([O-])OCCCC1CCN(CCOc2ccc(Oc3c(-c4ccc(O)cc4)sc4cc(O)ccc34)cc2)CC1 [NO-DMA, 3-(1-(2-(4-(6-hydroxy-2-(4-ydroxyphenyl)benzo[b]thiophen-3-yloxy)phenoxy)ethyl)piperidin-4-yl)propyl nitrate] | 21.4 ± 6.7 | 3.9 ± 1.3 | blocked the neuroprotective activity | did not block this effect | did not | attenuated neuroprotective activity | blocked the neuroprotective activity | robust neuroprotection identical to DMA | augmented | 144.2±5.2 % of baseline | – | – | – | –
Oc1ccc(-c2sc3cc(O)ccc3c2Oc2ccc(OCCN3CCCCC3)cc2)cc1 [DMA, desmethylarzoxifene] | – | 0.1 ± 0.1 | blocked the neuroprotective activity | – | did not | attenuated neuroprotective activity | blocked the neuroprotective activity | robust neuroprotection | augmented | 144.9±8.7 % of baseline | 96.8±7.1 | ODQ blocks effect of DMA on LTP | substantial bioavailability with preferential retention in the hippocampus up to 2 h after administration | substantial blood brain barrier permeability
